# Legend:
# Experiment in all cases: cells
# ES1 = assay type: functional, cell-based, Homo sapiens; settings: Homo sapiens, ES1
# Description: SANGER: Inhibition of human ES1 cell growth in a cell viability assay.
# SF-268 = assay type: functional, cell-based, Homo sapiens; settings: Homo sapiens, SF-268;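 further: growth inhibition of SF-268 cells determined with a cell viability assay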
# Description: SANGER: Inhibition of human SF268 cell growth in a cell viability assay.
# SW837 = assay type: functional, cell-based, Homo sapiens; settings: Homo sapiens, SW837;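 further: growth inhibition of SW837 cells, determined with a cell viability assay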
# Description: SANGER: Inhibition of human SW837 cell growth in a cell viability assay.
# DK-MG = assay type: functional, cell-based, Homo sapiens; settings: Homo sapiens, DK-MG;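 further: growth inhibition of DK-MG cells, read out with a cell viability assay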
# Description: SANGER: Inhibition of human DK-MG cell growth in a cell viability assay.
# SW1417 = assay type: functional, cell-based, Homo sapiens; settings: Homo sapiens, SW1417;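 further: growth inhibition of human SW1417 cells, read out with a cell viability assay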
# Description: SANGER: Inhibition of human SW1417 cell growth in a cell viability assay.
# LS-513 = assay type: functional, cell-based, Homo sapiens; settings: Homo sapiens, LS-513
# Description: SANGER: Inhibition of human LS-513 cell growth in a cell viability assay.
# SK-MEL-30 = assay type: functional, cell-based; settings: Homo sapiens;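 further: growth inhibition of SK-MEL-30 cells, determined with a cell viability assay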
# Description: SANGER: Inhibition of human SK-MEL-30 cell growth in a cell viability assay.
# CAL-51 = assay type: functional, cell-based, Homo sapiens; settings: Homo sapiens, CAL-51;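 further: human CAL-51 cell line, growth inhibition read out via a cell viability assay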
# Description: SANGER: Inhibition of human CAL-51 cell growth in a cell viability assay.
# Daoy = assay type: functional, cell-based, Homo sapiens; settings: Homo sapiens, Daoy;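 further: daoy cell growth inhibition, read out as cell viability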
# Description: SANGER: Inhibition of human Daoy cell growth in a cell viability assay.
# Calu-3 = assay type: functional, cell-based, Homo sapiens; settings: Homo sapiens, Calu-3;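 further: growth inhibition of human Calu-3 cells, determined with a cell viability assay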
# Description: SANGER: Inhibition of human Calu-3 cell growth in a cell viability assay.
# BEN = assay type: functional, cell-based, Homo sapiens; settings: Homo sapiens, BEN;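 further: growth inhibition of the BEN cell line, read out with a cell viability assay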
# Description: SANGER: Inhibition of human BEN cell growth in a cell viability assay.
# NCI-H441 = assay type: functional, cell-based; settings: Homo sapiens;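 further: growth inhibition of NCI-H441 cells, read out with a cell viability assay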
# Description: SANGER: Inhibition of human NCI-H441 cell growth in a cell viability assay.
# KE-37 = assay type: functional, cell-based; settings: Homo sapiens;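 further: growth inhibition of KE-37 cells, read out with a cell viability assay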
# Description: SANGER: Inhibition of human KE-37 cell growth in a cell viability assay.
# SF-295 = assay type: functional, cell-based, Homo sapiens; settings: Homo sapiens, SF-295; read-out: IC50;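 further: growth inhibition of SF-295 cells, read out with a cell viability assay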
# Description: SANGER: Inhibition of human SF295 cell growth in a cell viability assay.
# MSTO-211H = assay type: functional, cell-based, Homo sapiens; settings: Homo sapiens, MSTO-211H
# Description: SANGER: Inhibition of human MSTO-211H cell growth in a cell viability assay.
# YKG-1 = assay type: functional, cell-based, Homo sapiens; settings: Homo sapiens, YKG-1;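 further: cell growth inhibition, read out with a viability assay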
# Description: SANGER: Inhibition of human YKG-1 cell growth in a cell viability assay.
# CAL-39 = assay type: functional, cell-based, Homo sapiens; settings: Homo sapiens, CAL-39;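 further: cell viability assay measuring growth inhibition of CAL-39 cells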
# Description: SANGER: Inhibition of human CAL-39 cell growth in a cell viability assay.
# RPMI-8226 = assay type: functional, cell-based; settings: Homo sapiens
# Description: SANGER: Inhibition of human RPMI-8226 cell growth in a cell viability assay.
# EGI-1 = assay type: functional, cell-based, Homo sapiens; settings: Homo sapiens, EGI-1;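 further: cell viability readout used to gauge growth inhibition of EGI-1 cells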
# Description: SANGER: Inhibition of human EGI-1 cell growth in a cell viability assay.
# NCI-H209 = assay type: functional, cell-based; settings: Homo sapiens;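 further: growth inhibition of human NCI-H209 cells, measured by a cell viability assay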
# Description: SANGER: Inhibition of human NCI-H209 cell growth in a cell viability assay.
# KYSE-140 = assay type: functional, cell-based, Homo sapiens; settings: Homo sapiens, KYSE-140;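 further: cell viability assay measuring growth inhibition in human KYSE-140 cells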
# Description: SANGER: Inhibition of human KYSE-140 cell growth in a cell viability assay.
# U-87 MG = assay type: functional, cell-based, U-87MG ATCC; settings: Homo sapiens;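 further: growth inhibition of the cells measured with a viability assay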
# Description: SANGER: Inhibition of human U-87-MG cell growth in a cell viability assay.
# P30-OHK = assay type: functional, cell-based; settings: Homo sapiens;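 further: growth inhibition of the P30-OHK cell line, read out with a cell viability assay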
# Description: SANGER: Inhibition of human P30-OHK cell growth in a cell viability assay.
# UMUC3 = assay type: functional, cell-based, Homo sapiens; settings: Homo sapiens, UMUC3;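 further: growth inhibition of human UM-UC-3 cells, read out with a cell viability assay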
# Description: SANGER: Inhibition of human UM-UC-3 cell growth in a cell viability assay.
# ESS-1 = assay type: functional, cell-based, Homo sapiens; settings: Homo sapiens, ESS-1;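 further: growth inhibition of human ESS-1 cells, read out by a cell viability assay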
# Description: SANGER: Inhibition of human ESS-1 cell growth in a cell viability assay.
# IST-MES1 = assay type: functional, cell-based, Homo sapiens; settings: Homo sapiens, IST-MES1;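 further: growth inhibition of IST-MES1 cells, measured with a cell viability assay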
# Description: SANGER: Inhibition of human IST-MES1 cell growth in a cell viability assay.
# U-251 = assay type: functional, cell-based, Homo sapiens; settings: Homo sapiens, U-251;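 further: growth inhibition of human U-251 cells, read out through a cell viability assay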
# Description: SANGER: Inhibition of human U251 cell growth in a cell viability assay.
# ALL-PO = assay type: functional, cell-based; settings: Homo sapiens;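 further: growth inhibition of ALL-PO cells, read out by a cell viability assay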
# Description: SANGER: Inhibition of human ALL-PO cell growth in a cell viability assay.
# PSN1 = assay type: functional, cell-based, Homo sapiens; settings: Homo sapiens, PSN1;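 further: suppression of growth of human PSN1 cells, read out by a cell viability assay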
# Description: SANGER: Inhibition of human PSN1 cell growth in a cell viability assay.
# NMC-G1 = assay type: functional, cell-based, Homo sapiens; settings: Homo sapiens, NMC-G1;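 further: growth inhibition of the NMC-G1 cell line, measured with a cell viability read-out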
# Description: SANGER: Inhibition of human NMC-G1 cell growth in a cell viability assay.
# SW 954 = assay type: functional, cell-based, Homo sapiens; settings: Homo sapiens, SW 954;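 further: growth inhibition of SW954 human cancer cells, read out as cell viability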
# Description: SANGER: Inhibition of human SW954 cell growth in a cell viability assay.
# ES8 = assay type: functional, cell-based, Homo sapiens; settings: Homo sapiens, ES8;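 further: growth inhibition of human ES8 cells, read out with a cell viability assay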
# Description: SANGER: Inhibition of human ES8 cell growth in a cell viability assay.
# RKO = assay type: functional, cell-based, Homo sapiens; settings: Homo sapiens, RKO;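 further: growth inhibition of human RKO cells, read out with a cell viability assay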
# Description: SANGER: Inhibition of human RKO cell growth in a cell viability assay.
# SW1573 = assay type: functional, cell-based, Homo sapiens; settings: Homo sapiens, SW1573;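 further: growth inhibition of SW1573 cells, read out with a cell viability assay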
# Description: SANGER: Inhibition of human SW1573 cell growth in a cell viability assay.
# EC-GI-10 = assay type: functional, cell-based, Homo sapiens; settings: Homo sapiens, EC-GI-10
# Description: SANGER: Inhibition of human EC-GI-10 cell growth in a cell viability assay.
# CP66-MEL = assay type: functional, cell-based, Homo sapiens; settings: Homo sapiens, CP66-MEL;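 further: growth inhibition of CP66-MEL cells determined in a cell viability assay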
# Description: SANGER: Inhibition of human CP66-MEL cell growth in a cell viability assay.
# KP-4 = assay type: functional, cell-based, Homo sapiens; settings: Homo sapiens, KP-4; read-out: IC50;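 further: human KP-4 cells, with growth inhibition read out through a cell viability assay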
# Description: SANGER: Inhibition of human KP-4 cell growth in a cell viability assay.
# HOP-62 = assay type: functional, cell-based, Homo sapiens; settings: Homo sapiens, HOP-62;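 further: cell growth inhibition determined with a viability assay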
# Description: SANGER: Inhibition of human HOP-62 cell growth in a cell viability assay.
# OVCAR-3 = assay type: functional, cell-based, Homo sapiens; settings: Homo sapiens, OVCAR-3;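 further: growth inhibition of human OVCAR-3 cells, determined by a cell viability assay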
# Description: SANGER: Inhibition of human OVCAR-3 cell growth in a cell viability assay.
# KM-H2 = assay type: functional, cell-based; settings: Homo sapiens;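 further: growth inhibition of KM-H2 cells, read out by a cell viability assay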
# Description: SANGER: Inhibition of human KM-H2 cell growth in a cell viability assay.
# MDA-MB-453 = assay type: functional, cell-based, Homo sapiens; settings: Homo sapiens, MDA-MB-453
# Description: SANGER: Inhibition of human MDA-MB-453 cell growth in a cell viability assay.
# SW982 = assay type: functional, cell-based; settings: Homo sapiens;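 further: growth inhibition of SW982 cells, read out with a cell viability assay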
# Description: SANGER: Inhibition of human SW982 cell growth in a cell viability assay.
# HCE-T = assay type: functional, cell-based, Homo sapiens; settings: Homo sapiens, HCE-T;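 further: cell viability assay read-out, reporting inhibition of HCE-T cell growth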
# Description: SANGER: Inhibition of human HCE-T cell growth in a cell viability assay.
# HT1197 = assay type: functional, cell-based, Homo sapiens, HT-1197; settings: Homo sapiens, HT1197
# Description: SANGER: Inhibition of human HT-1197 cell growth in a cell viability assay.
# EW-18 = assay type: functional, cell-based; settings: Homo sapiens;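 further: growth inhibition of EW-18 cells, read out by a cell viability assay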
# Description: SANGER: Inhibition of human EW-18 cell growth in a cell viability assay.
# JAR = assay type: functional, cell-based, Homo sapiens; settings: Homo sapiens, JAR;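 further: growth inhibition of human JAR cells determined with a cell viability assay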
# Description: SANGER: Inhibition of human JAR cell growth in a cell viability assay.
# TE-8 = assay type: functional, cell-based, Homo sapiens; settings: Homo sapiens, TE-8;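 further: growth inhibition of TE-8 cells, measured with a cell viability readout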
# Description: SANGER: Inhibition of human TE-8 cell growth in a cell viability assay.
# AM-38 = assay type: functional, cell-based, Homo sapiens; settings: Homo sapiens, AM-38;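 further: growth inhibition of AM-38 cells of human origin, read out by a cell viability assay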
# Description: SANGER: Inhibition of human AM-38 cell growth in a cell viability assay.
# ES3 = assay type: functional, cell-based, Homo sapiens; settings: Homo sapiens, ES3;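 further: growth inhibition of ES3 cells, read out with a cell viability assay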
# Description: SANGER: Inhibition of human ES3 cell growth in a cell viability assay.
# MFE-280 = assay type: functional, cell-based, Homo sapiens; settings: Homo sapiens, MFE-280;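 further: growth inhibition of MFE-280 cells, determined with a cell viability readout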
# Description: SANGER: Inhibition of human MFE-280 cell growth in a cell viability assay.
# COR-L88 = assay type: functional, cell-based; settings: Homo sapiens;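 further: growth inhibition of COR-L88 cells, read out with a cell viability assay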
# Description: SANGER: Inhibition of human COR-L88 cell growth in a cell viability assay.
smiles,measurement,setting,value
CN(c1ncccc1CNc1nc(Nc2ccc3c(c2)CC(=O)N3)ncc1C(F)(F)F)S(C)(=O)=O [PF-00562271],IC50,ES1,> 2560 nM
same,IC50,SF-268,> 2560 nM
same,IC50,SW837,> 2560 nM
same,IC50,DK-MG,> 2560 nM
same,IC50,SW1417,> 2560 nM
same,IC50,LS-513,> 2560 nM
same,IC50,SK-MEL-30,> 2560 nM
same,IC50,CAL-51,> 2560 nM
same,IC50,Daoy,> 2560 nM
same,IC50,Calu-3,> 2560 nM
same,IC50,BEN,> 2560 nM
same,IC50,NCI-H441,> 2560 nM
same,IC50,KE-37,> 2560 nM
same,IC50,SF-295,> 2560 nM
same,IC50,MSTO-211H,> 2560 nM
same,IC50,YKG-1,> 2560 nM
same,IC50,CAL-39,2420 nM
same,IC50,RPMI-8226,> 2560 nM
same,IC50,EGI-1,> 2560 nM
same,IC50,NCI-H209,> 2560 nM
same,IC50,KYSE-140,> 2560 nM
same,IC50,U-87 MG,> 2560 nM
same,IC50,P30-OHK,> 2560 nM
same,IC50,UMUC3,> 2560 nM
same,IC50,ESS-1,> 2560 nM
same,IC50,IST-MES1,> 2560 nM
same,IC50,U-251,1740 nM
same,IC50,ALL-PO,1020 nM
same,IC50,PSN1,> 2560 nM
same,IC50,NMC-G1,> 2560 nM
same,IC50,SW 954,2000 nM
same,IC50,ES8,> 2560 nM
same,IC50,RKO,> 2560 nM
same,IC50,SW1573,> 2560 nM
same,IC50,EC-GI-10,> 2560 nM
same,IC50,CP66-MEL,> 2560 nM
same,IC50,KP-4,> 2560 nM
same,IC50,HOP-62,> 2560 nM
same,IC50,OVCAR-3,> 2560 nM
same,IC50,KM-H2,> 2560 nM
same,IC50,MDA-MB-453,> 2560 nM
same,IC50,SW982,328 nM
same,IC50,HCE-T,> 2560 nM
same,IC50,HT1197,> 2560 nM
same,IC50,EW-18,> 2560 nM
same,IC50,JAR,> 2560 nM
same,IC50,TE-8,> 2560 nM
same,IC50,AM-38,> 2560 nM
same,IC50,ES3,> 2560 nM
same,IC50,MFE-280,> 2560 nM
same,IC50,COR-L88,> 2560 nM
Cn1cncc1[C@@](N)(c1ccc(Cl)cc1)c1ccc2c(c1)c(-c1cccc(Cl)c1)cc(=O)n2C [TIPIFARNIB],IC50,ES1,1960 nM
same,IC50,SF-268,8070 nM
same,IC50,SW837,9890 nM
same,IC50,DK-MG,> 16000 nM
same,IC50,SW1417,> 16000 nM
same,IC50,LS-513,> 16000 nM
same,IC50,SK-MEL-30,3740 nM
same,IC50,CAL-51,3530 nM
same,IC50,Daoy,57.5 nM
same,IC50,Calu-3,4430 nM
same,IC50,BEN,5400 nM
same,IC50,NCI-H441,13600 nM
same,IC50,KE-37,2320 nM
same,IC50,SF-295,2160 nM
same,IC50,MSTO-211H,> 16000 nM
same,IC50,YKG-1,526 nM
same,IC50,CAL-39,962 nM
same,IC50,RPMI-8226,9030 nM
same,IC50,EGI-1,11600 nM
same,IC50,NCI-H209,> 16000 nM
same,IC50,KYSE-140,1110 nM
same,IC50,U-87 MG,> 16000 nM
same,IC50,P30-OHK,264 nM
same,IC50,UMUC3,12600 nM
same,IC50,ESS-1,> 16000 nM
same,IC50,IST-MES1,14600 nM
same,IC50,U-251,7090 nM
same,IC50,ALL-PO,555 nM
same,IC50,PSN1,1110 nM
same,IC50,NMC-G1,425 nM
same,IC50,SW 954,2900 nM
same,IC50,ES8,10400 nM
same,IC50,RKO,1230 nM
same,IC50,SW1573,> 16000 nM
same,IC50,EC-GI-10,> 16000 nM
same,IC50,CP66-MEL,9820 nM
same,IC50,KP-4,13600 nM
same,IC50,HOP-62,3210 nM
same,IC50,OVCAR-3,> 16000 nM
same,IC50,KM-H2,> 16000 nM
same,IC50,MDA-MB-453,> 16000 nM
same,IC50,SW982,> 16000 nM
same,IC50,HCE-T,8000 nM
same,IC50,HT1197,11700 nM
same,IC50,EW-18,458 nM
same,IC50,JAR,> 16000 nM
same,IC50,TE-8,928 nM
same,IC50,AM-38,> 16000 nM
same,IC50,ES3,11800 nM
same,IC50,MFE-280,> 16000 nM
same,IC50,COR-L88,> 16000 nM

# Reference: ChEMBL document CHEMBL1201861, “Genomics of Drug Sensitity in Cancer screening data, Wellcome Trust Sanger Institute”
